Values of other authors in patent US6475518B1, “Methods and compositions for treatment of disorders associated with chlamydia and similar bacterial infection” (priority 1998, dated 2002).

How the values were obtained:
[1] = system: C. pneumoniae; settings: Gurfinkel E, et al., Lancet 1997; limited numbers, no prolonged follow-up yet
[2] = system: C. pneumoniae; settings: Gupta S, et al., Circulation 1997

SMILES	Clinical benefit of sole therapy [1]	Clinical benefit of monotherapy [2]
CC[C@H]1OC(=O)[C@H](C)[C@@H](O[C@H]2C[C@@](C)(OC)[C@@H](O)[C@H](C)O2)[C@H](C)[C@@H](O[C@@H]2O[C@H](C)C[C@H](N(C)C)[C@H]2O)[C@](C)(O)C[C@@H](C)/C(=N\OCOCCOC)[C@H](C)[C@@H](O)[C@]1(C)O [roxithromycin]	a benefit was described	
CC[C@H]1OC(=O)[C@H](C)[C@@H](O[C@H]2C[C@@](C)(OC)[C@@H](O)[C@H](C)O2)[C@H](C)[C@@H](O[C@@H]2O[C@H](C)C[C@H](N(C)C)[C@H]2O)[C@](C)(O)C[C@@H](C)CN(C)[C@H](C)[C@@H](O)[C@]1(C)O [azithromycin]		the benefit was not sustained after initial therapy
